Experiment [1] is filed under the species Homo sapiens. The experiment can be described thus: Selectivity index, ratio of IC50 for inhibition of HSP90alpha (unkown origin) to IC50 for inhibition of TRAP1 (unknown origin).
Experiment [2] addresses T1, Endoplasmin (Homo sapiens, UniProt P14625). The experiment can be described thus: Inhibition of PU-H71-FITC3 binding to recombinant N-terminal Grp94 (unknown origin) incubated for 2 hrs by fluorescence polarization assay. Background: Polarisation of emitted light reports the rotation of a fluorescent probe.
Experiment [3] has as its target T1, Endoplasmin. The experiment can be described thus: Inhibition of Grp94 in human HeLa cells assessed as reduction in HER2 protein expression at 25 uM after 12 hrs by Western blotting analysis. The experiment is classed as cell-based. (Immunoblotting shows a protein as a band on a membrane.)
Experiment [4] deals with Heat shock protein HSP 90-alpha (Homo sapiens, UniProt P07900). The experiment can be described thus: Inhibition of PU-H71-FITC3 binding to recombinant N-terminal HSP90alpha (unknown origin) incubated for 2 hrs by fluorescence polarization assay.
Experiment [5] has as its target T1, Endoplasmin. The experiment can be described thus: Inhibition of Grp94 in human HeLa cells assessed as reduction in cdk4 protein expression at 25 uM after 12 hrs by Western blotting analysis. Format: cell-based.
Experiment [6] addresses T2, Heat shock protein 75 kDa, mitochondrial (Homo sapiens, UniProt Q12931).
T2 sequence (Q12931 whole entry): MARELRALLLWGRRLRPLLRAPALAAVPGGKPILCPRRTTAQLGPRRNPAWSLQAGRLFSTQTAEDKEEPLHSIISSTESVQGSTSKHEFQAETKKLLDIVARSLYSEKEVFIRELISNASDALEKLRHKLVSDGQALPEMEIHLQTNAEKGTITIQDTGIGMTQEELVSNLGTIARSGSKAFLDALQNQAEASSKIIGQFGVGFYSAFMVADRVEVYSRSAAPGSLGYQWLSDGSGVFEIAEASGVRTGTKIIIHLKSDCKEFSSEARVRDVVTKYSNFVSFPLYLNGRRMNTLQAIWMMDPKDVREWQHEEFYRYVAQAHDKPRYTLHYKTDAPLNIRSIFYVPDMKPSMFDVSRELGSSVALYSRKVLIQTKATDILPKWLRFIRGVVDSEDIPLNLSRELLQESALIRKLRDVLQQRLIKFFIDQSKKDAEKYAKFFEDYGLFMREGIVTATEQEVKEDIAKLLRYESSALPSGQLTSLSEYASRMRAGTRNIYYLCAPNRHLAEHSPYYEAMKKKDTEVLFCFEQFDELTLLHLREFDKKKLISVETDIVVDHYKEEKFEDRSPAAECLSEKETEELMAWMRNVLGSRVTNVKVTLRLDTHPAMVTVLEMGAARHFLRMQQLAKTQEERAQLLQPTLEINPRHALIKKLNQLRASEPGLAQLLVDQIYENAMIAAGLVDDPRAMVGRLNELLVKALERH
The experiment can be described thus: Inhibition of PU-H71-FITC3 binding to recombinant full length TRAP1 (unknown origin) incubated for 2 hrs by fluorescence polarization assay.

In experiment [7] the test system is HeLa. The experiment can be described thus: Induction of apoptosis in human HeLa cells assessed as increase in cleaved caspase 3 protein expression at 25 uM after 12 hrs by Western blot analysis. The experiment is classed as functional, cell-based.
The species entered for experiment [8] is Homo sapiens. The experiment can be described thus: Selectivity index, ratio of IC50 for inhibition of Grap94 (unkown origin) to IC50 for inhibition of TRAP1 (unknown origin).
The target of experiment [9] is T3, Heat shock protein 75 kDa, mitochondrial (Homo sapiens) (UniProt Q12931).
T3 sequence (whole entry): T2 sequence (Q12931 whole entry)
The experiment can be described thus: Inhibition of TRAP1 in human HeLa cells assessed as reduction in SDHB protein expression at 25 uM after 12 hrs by Western blotting analysis. The experiment is classed as cell-based.

Active and inactive are the calls of the source. The calls are words filed in the database; no cut-off is given here. A value given as a limit tells only on which side of the number the result lay.

In general, IC50 refers to the midpoint of a concentration-inhibition curve.

T1 sequence (P14625 whole entry): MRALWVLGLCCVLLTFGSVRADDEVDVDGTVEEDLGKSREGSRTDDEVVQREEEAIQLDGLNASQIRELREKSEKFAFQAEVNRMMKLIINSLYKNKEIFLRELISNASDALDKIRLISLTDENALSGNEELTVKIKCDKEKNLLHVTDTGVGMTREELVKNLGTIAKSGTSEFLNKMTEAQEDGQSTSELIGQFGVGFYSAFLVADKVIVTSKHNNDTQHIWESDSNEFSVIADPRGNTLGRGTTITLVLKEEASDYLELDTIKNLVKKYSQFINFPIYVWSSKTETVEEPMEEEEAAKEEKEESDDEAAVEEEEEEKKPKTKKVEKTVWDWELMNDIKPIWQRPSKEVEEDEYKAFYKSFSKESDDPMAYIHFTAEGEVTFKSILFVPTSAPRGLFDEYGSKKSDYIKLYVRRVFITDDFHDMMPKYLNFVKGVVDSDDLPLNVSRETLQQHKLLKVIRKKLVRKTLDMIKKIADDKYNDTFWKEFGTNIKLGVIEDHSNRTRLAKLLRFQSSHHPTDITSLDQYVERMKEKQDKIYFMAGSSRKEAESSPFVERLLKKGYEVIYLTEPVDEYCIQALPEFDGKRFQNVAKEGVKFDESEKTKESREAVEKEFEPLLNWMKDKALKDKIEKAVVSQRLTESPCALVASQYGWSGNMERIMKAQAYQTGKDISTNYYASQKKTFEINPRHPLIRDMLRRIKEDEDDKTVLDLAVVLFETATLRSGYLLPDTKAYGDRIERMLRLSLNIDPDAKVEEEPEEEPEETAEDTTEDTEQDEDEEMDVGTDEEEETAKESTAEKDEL

On to `Nc1nc(Cl)c2nc(S)n(Cc3ccc(Cl)c(Cl)c3)c2n1`, for which the Ratio IC50 is above 78.7 in experiment [1] and 29.6 in experiment [8]. Also, the IC50 in experiment [2] was 1880 nM; in experiment [4], above 5000 nM; in [6] it was 63.5 nM. Besides, the inhibition result in [3] and in experiment [5] was “inactive” in each case. For the same compound, the result in experiment [7] was Active. In experiment [9], the inhibition entry was “Active”.

These data come from ChEMBL document CHEMBL4823290, “Design and Synthesis of TRAP1 Selective Inhibitors: H-Bonding with Asn171 Residue in TRAP1 Increases Paralog Selectivity” (ACS Med Chem Lett, 2021).
